Series [1] in a line: Compound was evaluated for first-order rate constant for acid-catalyzed solvolysis at pH 7.6. The format is ADME.
A short description of series [2]: Half-life period for DNA alkylation, was determined. Format: ADME.
Series [3] concerns Nucleic Acid. Description: Compound was evaluated for relative rate constant for alkylation of the single high affinity site in w794 DNA at the 6.0 pH points at 25 degrees Centigrade. The format is nucleic-acid assay.
Series [4] has as its system Nucleic Acid. Description: Compound was evaluated for relative rate constant for alkylation of the single high affinity site in w794 DNA at the 6.6 pH points at 25 degrees Centigrade. Format: nucleic-acid assay.
In series [5] the test system is Nucleic Acid. Kind of series: Compound was evaluated for relative rate constant for alkylation of the single high affinity site in w794 DNA at the 7.1 pH points at 25 degrees Centigrade. Format: nucleic-acid assay.
Series [6] relates to Nucleic Acid. Description: Compound was evaluated for relative rate constant for alkylation of the single high affinity site in w794 DNA at the 7.6 pH points at 25 degrees Centigrade. The format is nucleic-acid assay.
Series [7] concerns Nucleic Acid. Description: Compound was evaluated for relative rate constant for alkylation of the single high affinity site in w794 DNA at the 8.1 pH points at 25 degrees Centigrade. The format is nucleic-acid assay.
For series [8], the system named is Nucleic Acid. Description: Compound was evaluated for pseudo first-order rate constant for alkylation of the single high affinity site in w794 DNA at the 6.1 pH points at 25 degrees Centigrade. The format is nucleic-acid assay.
Series [9] has as its system Nucleic Acid. Kind of series: Compound was evaluated for pseudo first-order rate constant for alkylation of the single high affinity site in w794 DNA at the 6.8 pH points at 25 degrees Centigrade. Format: nucleic-acid assay.
Series [10] relates to Nucleic Acid. Description: Compound was evaluated for pseudo first-order rate constant for alkylation of the single high affinity site in w794 DNA at the 7.6 pH points at 25 degrees Centigrade. The format is nucleic-acid assay.
The test system of series [11] is Nucleic Acid. Description: Compound was evaluated for pseudo first-order rate constant for alkylation of the single high affinity site in w794 DNA at the 8.0 pH points at 25 degrees Centigrade. The format is nucleic-acid assay.
In series [12] the test system is Nucleic Acid. Kind of series: Compound was evaluated for relative rate constant for alkylation of the single high affinity site in w794 DNA at pH 7.5. Format: nucleic-acid assay.
Series [13] concerns Nucleic Acid. Description: Compound was evaluated for relative rate constant for alkylation of the single high affinity site in w794 DNA at the 6.1 pH points at 25 degrees Centigrade. The format is nucleic-acid assay.
Series [14] relates to Nucleic Acid. Kind of series: Compound was evaluated for relative rate constant for alkylation of the single high affinity site in w794 DNA at the 6.8 pH points at 25 degrees Centigrade. Format: nucleic-acid assay.
For series [15], the system named is Nucleic Acid. Kind of series: Compound was evaluated for relative rate constant for alkylation of the single high affinity site in w794 DNA at the 8.0 pH points at 25 degrees Centigrade. Format: nucleic-acid assay.
Series [16] deals with Nucleic Acid. Kind of series: Compound was evaluated for relative rate constant for alkylation of the single high affinity site in w794 DNA at 10 mM NaH2PO4-Na2HPO4 buffers. Format: nucleic-acid assay.
The subject of series [17] is Nucleic Acid. Kind of series: Compound was evaluated for relative rate constant for alkylation of the single high affinity site in w794 DNA at pH 7.5 10 mM NaH2PO4-Na2HPO4, 1 mM EDTA buffers. Format: nucleic-acid assay.
In series [18] the test system is Nucleic Acid. Kind of series: Compound was evaluated for relative rate constant for alkylation of the single high affinity site in w794 DNA at pH 7.5 using 10 mM Tris buffers. Format: nucleic-acid assay.
The subject of series [19] is Nucleic Acid. Kind of series: Compound was evaluated for relative rate constant for alkylation of the single high affinity site in w794 DNA at pH 7.5 using 10 mM Tris, 1 mM EDTA buffers. Format: nucleic-acid assay.
Series [20] in a line: Half-life period for acid-catalyzed solvolysis, was determined at pH 3. The format is ADME.

Consider eleven compounds from ChEMBL document CHEMBL1130569, “pH Dependence of the rate of DNA alkylation for (+)-duocarmycin SA and (+)-CCBI-TMI” (Bioorg Med Chem Lett, 1997).

Values joined by “and” are separate entries in the source; they are usually repeats but may differ in a detail not shown here. Identical values can stand only once.

`CC(C)(C)OC(=O)N1C[C@H]2C[C@@]23C1=CC(=O)c1ccc(C#N)cc13` yielded a k in series [1] of 9.9e-07 s⁻¹.
Regarding `COC(=O)c1cc2c([nH]1)C(=O)C=C1N(C(=O)c3cc4cc(OC)c(OC)c(OC)c4[nH]3)C[C@H]3C[C@]123` [DUOCARMYCIN], the T1/2 in [2] is 1.2 years. The compound also yielded a k in series [1] of 2.7e-11 s⁻¹. Moreover, the Krel was found to be 1.89 with Nucleic Acid [3]; 1.32 in the series with Nucleic Acid [4]; 1.12 in the series with Nucleic Acid [5]; 1.05 in the series on Nucleic Acid [6]; 1 in the series on Nucleic Acid [7]; 0.9 in the series on Nucleic Acid [12]. The k obs is 0.000283 s⁻¹ in the series with Nucleic Acid [8]; 0.000199 s⁻¹ in the series on Nucleic Acid [9]; 0.000169 s⁻¹ in the series with Nucleic Acid [10]; 0.000158 s⁻¹ and 0.00015 s⁻¹ in the series on Nucleic Acid [11].
In the series with Nucleic Acid [12], `COc1ccc2c(c1)[C@@]13C[C@@H]1CN(C(=O)c1cc4cc(NC(=O)c5cc6ccccc6[nH]5)ccc4[nH]1)C3=CC2=O` gave a Krel of 1.4.
`COc1cc2cc(C(=O)N3C[C@H]4C[C@@]45C3=CC(=O)c3ccc(C#N)cc35)[nH]c2c(OC)c1OC` had a k in series [1] of 2.5e-11 s⁻¹. In addition, the Krel with Nucleic Acid [13] came out at 2.55; in the series on Nucleic Acid [14], 1.5; in the series on Nucleic Acid [6] it was 1.2; with Nucleic Acid [15], 1; in the series on Nucleic Acid [16], 1.05; with Nucleic Acid [17], 1. The results for the Krel in the series with Nucleic Acid [18], in the series on Nucleic Acid [19] and in the series with Nucleic Acid [12] were 1.74, 1.51 and 2.5, respectively. Besides, the k obs in the series with Nucleic Acid [8] came out at 0.000706 s⁻¹; in the series on Nucleic Acid [9] it was 0.000417 s⁻¹; in the series with Nucleic Acid [10] it was 0.000336 s⁻¹; in the series on Nucleic Acid [11], 0.000278 s⁻¹.
Consider `O=C(Nc1ccc2[nH]c(C(=O)N3C[C@H]4C[C@@]45C3=CC(=O)c3ccccc35)cc2c1)c1cc2ccccc2[nH]1`, for which the Krel in the series with Nucleic Acid [12] was determined as 1.
As for `COc1ccc2c(c1)[C@@]13C[C@@H]1CN(C(=O)OC(C)(C)C)C3=CC2=O`, the k in series [1] was found to be 1.75e-06 s⁻¹.
With `N#Cc1ccc2c(c1)[C@@]13C[C@@H]1CN(C(=O)c1cc4cc(NC(=O)c5cc6ccccc6[nH]5)ccc4[nH]1)C3=CC2=O`, the Krel in the series on Nucleic Acid [12] was 2.5.
In [20], `COC(=O)c1cc2c([nH]1)C(=O)C=C1N(C(=O)OC(C)(C)C)C[C@H]3C[C@]123` registered a T1/2 of 177 h. Besides, the k in [1] stood at 1.08e-06 s⁻¹.
Compound `COc1ccc2c(c1)[C@@]13C[C@@H]1CN(C(=O)c1cc4cc(OC)c(OC)c(OC)c4[nH]1)C3=CC2=O` displayed a Krel in the series on Nucleic Acid [12] of 1.9.
The same measure, in the same setting: to `COc1cc2cc(C(=O)N3C[C@H]4C[C@@]45C3=CC(=O)c3ccccc35)[nH]c2c(OC)c1OC` belongs 1.
Regarding `CC(C)(C)OC(=O)N1C[C@H]2C[C@@]23C1=CC(=O)c1ccccc13`, the k in [1] amounted to 1.45e-06 s⁻¹.
